In ChEMBL document CHEMBL1201862, “PubChem BioAssay data set” (2004):
Activity calls are given as the source filed them.

Assays:
[1] = A Cell Based Secondary Assay To Explore Cytotoxicity of Compounds that Sensitize Mycobacterium Tuberculosis to Beta-Lactam Antibiotics.; assay type: functional
[2] = HEK-293T viability loss after treatment – luminescence, T-cell screen hits, cytotoxicity control for TCR NF-kB inhibitor project, dose response (AID 489026); assay type: functional, cell-based;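 note: cells exposed to compound about 14 hours before the viability readout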
[3] = blockers of bursicon-stimulated LGR2 cAMP reporter – cell-based, HEK293, CRE-luciferase reporter, cherry pick, set 2, dose response (AID 743343); assay type: functional;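 note: transfected cells were stimulated with diluted bursicon conditioned medium after compound addition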
[4] = A549 cell cytotoxicity, dose response, cytotoxicity control, plate reader, cherry-pick, antagonist series (AID 743412); assay type: functional, cell-based
[5] = blockade of melanocortin 4 receptor signaling – cell-based, plate reader, cherry pick, counter-screen for LGR2 antagonist project, dose response (AID 743444); assay type: functional;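 note: transfected HEK 293 cells stimulated with alpha-MSH peptide; potency of inhibitors of the alpha-MSH evoked signal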
[6] = viability loss in HEK293 cells – cell-based, plate reader, cherry-picked samples, cytotoxicity control, dose response (AID 743446); assay type: functional
[7] = target: Glucose-6-phosphate 1-dehydrogenase (Homo sapiens, UniProt P11413); assay: inhibition of Homo sapiens G6PD, dose series – biochemical, fluorescence, selectivity assay for P. falciparum G6PD inhibitor project, dose response (AID 504792); assay type: functional
Sequence of Glucose-6-phosphate 1-dehydrogenase (P11413 whole entry): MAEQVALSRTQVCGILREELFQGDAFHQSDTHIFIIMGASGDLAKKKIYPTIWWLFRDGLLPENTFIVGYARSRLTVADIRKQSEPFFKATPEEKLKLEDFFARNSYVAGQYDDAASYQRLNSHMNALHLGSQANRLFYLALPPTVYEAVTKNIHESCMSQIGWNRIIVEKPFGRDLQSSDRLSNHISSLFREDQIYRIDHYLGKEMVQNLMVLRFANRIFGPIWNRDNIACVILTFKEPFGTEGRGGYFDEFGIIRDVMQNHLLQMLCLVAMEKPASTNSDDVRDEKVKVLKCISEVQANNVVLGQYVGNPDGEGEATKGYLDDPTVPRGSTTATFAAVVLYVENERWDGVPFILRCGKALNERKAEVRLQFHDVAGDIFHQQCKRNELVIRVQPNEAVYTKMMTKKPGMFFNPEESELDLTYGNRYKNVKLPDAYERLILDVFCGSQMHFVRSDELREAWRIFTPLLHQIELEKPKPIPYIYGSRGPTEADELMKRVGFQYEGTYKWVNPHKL

[8] = target: T1, Rac GTPase-activating protein 1 (Homo sapiens, UniProt Q9H0H5); assay: blockers of MgcRacGAP-driven Rac1 GTP hydrolysis – biochemical, ADP Hunter fluorescence, primary and confirmatory, confirmation (AID 624330); assay type: functional
T1 sequence (Q9H0H5 whole entry): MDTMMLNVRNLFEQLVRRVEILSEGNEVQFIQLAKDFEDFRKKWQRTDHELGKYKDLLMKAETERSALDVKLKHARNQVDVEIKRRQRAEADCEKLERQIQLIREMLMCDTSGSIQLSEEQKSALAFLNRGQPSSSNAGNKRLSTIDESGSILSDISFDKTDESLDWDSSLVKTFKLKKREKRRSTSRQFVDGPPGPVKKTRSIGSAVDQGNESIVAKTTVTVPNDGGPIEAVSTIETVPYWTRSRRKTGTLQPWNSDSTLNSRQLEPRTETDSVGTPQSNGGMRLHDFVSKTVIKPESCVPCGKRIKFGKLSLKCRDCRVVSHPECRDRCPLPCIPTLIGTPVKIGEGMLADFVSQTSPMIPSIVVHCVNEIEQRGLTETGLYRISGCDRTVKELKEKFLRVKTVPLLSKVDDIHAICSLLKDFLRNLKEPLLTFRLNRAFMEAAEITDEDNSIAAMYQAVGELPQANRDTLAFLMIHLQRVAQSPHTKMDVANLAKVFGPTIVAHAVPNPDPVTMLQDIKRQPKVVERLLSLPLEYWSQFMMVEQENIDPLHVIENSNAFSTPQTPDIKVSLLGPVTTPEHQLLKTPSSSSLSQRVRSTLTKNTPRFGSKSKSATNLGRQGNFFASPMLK

[9] = NIH3T3 cell viability loss – ATP luminescence, mouse fibroblasts, counter-screen, dose response (AID 2010); assay type: functional, cell-based;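 note: cells exposed to compound for about 90 hours before reading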
[10] = Trypanosoma cruzi growth suppression in host cells – NIH3T3 host cells, beta-gal luminescence, confirmation (AID 2044); assay type: functional, cell-based;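 note: intracellular parasites grown in NIH/3T3 mouse fibroblasts as host cells; luminescent beta-galactosidase reporter signal from transgenic T. cruzi replicating inside host cells; inhibitors lower the luminescence signal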
[11] = Vero E6 cell cytotoxicity, dose response, cytotoxicity control for non-replicating M. tuberculosis project, secondary assay (AID 492998); assay type: functional, VeroE6; details: Vero C1008
cells = assay type: functional
SN12K1 = assay: cells; assay type: functional; details: Homo sapiens
P388/ADR = assay: cells; assay type: functional; details: Mus musculus
P388 = assay: cells; assay type: functional; details: Mus musculus
[12] = target: T2, Carboxy-terminal domain RNA polymerase II polypeptide A small phosphatase 1 (Homo sapiens, UniProt Q9GZU7); assay: CTDSP1 inhibitors, concentration-response, biochemical, absorbance readout, ultra-high-throughput screen actives (AID 540297); assay type: functional
T2 sequence (Q9GZU7 whole entry): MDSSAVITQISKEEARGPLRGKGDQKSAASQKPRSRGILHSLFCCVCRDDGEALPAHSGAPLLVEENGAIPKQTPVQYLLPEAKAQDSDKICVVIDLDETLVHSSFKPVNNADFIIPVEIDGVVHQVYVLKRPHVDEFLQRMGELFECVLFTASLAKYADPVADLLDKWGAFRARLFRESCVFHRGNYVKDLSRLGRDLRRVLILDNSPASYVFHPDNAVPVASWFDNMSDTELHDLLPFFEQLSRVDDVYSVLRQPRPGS

Leucine aminopeptidase = target: T3, Leucine aminopeptidase (Plasmodium falciparum 3D7, UniProt Q8IL11); assay: P. falciparum M17LAP inhibitors, primary screen, biochemical, fluorogenic H-Leu-NHMec substrate, 1536-well (AID 1619); assay type: functional
T3 sequence (Q8IL11 whole entry): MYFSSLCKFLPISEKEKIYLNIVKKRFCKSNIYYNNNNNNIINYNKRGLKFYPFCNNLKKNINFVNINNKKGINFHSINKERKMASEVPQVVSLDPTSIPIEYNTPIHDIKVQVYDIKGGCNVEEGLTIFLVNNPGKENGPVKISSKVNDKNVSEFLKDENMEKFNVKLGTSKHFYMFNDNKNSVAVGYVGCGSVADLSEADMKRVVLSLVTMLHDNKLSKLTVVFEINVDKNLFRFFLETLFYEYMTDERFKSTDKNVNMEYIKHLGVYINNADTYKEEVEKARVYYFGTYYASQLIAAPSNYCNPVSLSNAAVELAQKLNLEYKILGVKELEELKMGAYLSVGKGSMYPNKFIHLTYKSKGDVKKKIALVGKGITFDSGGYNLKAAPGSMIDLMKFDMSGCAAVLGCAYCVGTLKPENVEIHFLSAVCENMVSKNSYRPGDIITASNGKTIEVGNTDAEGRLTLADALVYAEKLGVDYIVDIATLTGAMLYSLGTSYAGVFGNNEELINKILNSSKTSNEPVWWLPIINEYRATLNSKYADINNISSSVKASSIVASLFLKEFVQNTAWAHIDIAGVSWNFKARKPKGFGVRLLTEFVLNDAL

[13] = non-specific 3'UTR reporter inhibition in Clone20-Shn3RL – cell-based, Renilla luciferase, cherry-picked, counter-screen for Shn3 inhibitor project, dose response (AID 624133); assay type: functional
HEK293 = assay: EBV LMP1 TES2 canonical NF-kB signalling blockers – cell-based, HEK293, luciferase, cherry-pick, dose response (AID 588343); assay type: functional; details: Homo sapiens
[14] = loss of viability in HepG2 cells – cell-based, CellTiter-Glo, cherry-picked, cytotoxicity control for Shn3 inhibitor project, dose response (AID 624134); assay type: functional
Vero = assay: cells; assay type: functional; details: Chlorocebus sabaeus
[15] = target: Heat shock protein HSP 90-alpha (Homo sapiens, UniProt P07900); assay type: functional, organism-based
[16] = reduction of Shn3 3'UTR-driven luciferase in osteoblasts – cell-based, Clone20 osteoblasts, firefly luciferase, cherry-picked, dose response (AID 624132); assay type: functional;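 note: firefly luciferase luminescence from reporter carrying the Shn3 3'UTR in osteoblasts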

SMILES: NS(=O)(=O)c1ccc(Sc2nc3ccccc3s2)c([N+](=O)[O-])c1
- CC50 [1]: 13 µM (active)
- IC50 [2]: > 80 µM (inactive)

SMILES: CCOc1ccc(-c2ccc(SCC)nn2)cc1
- AC50 [3]: 7.12 µM (active)
- AC50 [4]: > 52 µM (inactive)
- AC50 [5]: 8.8 µM (active)
- AC50 [6]: > 52 µM (inactive)

SMILES: COc1ccc(Cl)cc1NC(=O)NNC(=O)c1ccccn1
- CC50 [1]: 28.8 µM (active)

SMILES: O=C(Sc1nnc(O)nc1O)c1ccccc1
- IC50 [7]: > 80 µM (inactive)
- IC50 [8]: 224 µM (active)

SMILES: C/C(Cn1nnc([N+](=O)[O-])n1)=N\NC(=O)c1ccccc1O
- IC50 [7]: > 80 µM (inactive)

SMILES: O=C(N/N=C/c1ccc([N+](=O)[O-])s1)c1ccncc1
- EC50 [9]: > 60 µM (not active)
- EC50 [10]: 0.838 µM (active)
- CC50 [11]: 15.6 µM (active)
- IC50 (cells): 1 µM (active)

SMILES: O=c1oc2c(ccc3occc32)c(N2CCCCC2)c1-c1ccccc1
- GI50 (SN12K1): > 100 µM (inactive)
- GI50 (P388/ADR): 48.6 µM (inactive)
- GI50 (P388): 34.7 µM (inactive)

SMILES: CCOC(=O)/C=C/c1c[nH]c(=O)[nH]c1=O
- GI50 (SN12K1): > 75 µM (inactive)
- GI50 (P388/ADR): > 66.4 µM (inactive)
- GI50 (P388): > 75 µM (inactive)

SMILES: CC(=O)C(=Cc1cn(C)c(=O)n(C)c1=O)C(C)=O
- GI50 (SN12K1): 100 µM (inactive)
- GI50 (P388/ADR): 96.6 µM (inactive)
- GI50 (P388): 80.7 µM (inactive)

SMILES: CCCCCCc1cn([C@H]2C[C@H](O)[C@@H](CO)O2)c(=O)[nH]c1=O
- GI50 (SN12K1): > 100 µM (inactive)
- GI50 (P388/ADR): > 100 µM (inactive)
- GI50 (P388): > 100 µM (inactive)

SMILES: CC1=NNC(=O)C1CCC(=O)N/N=C/c1ccco1 (centres undefined)
- IC50 [12]: > 80 µM (inactive)
- IC50 (Leucine aminopeptidase): 69.2 µM (active)

SMILES: CCCCC(=O)NC(c1cccc([N+](=O)[O-])c1)c1ccc2cccnc2c1O (centres undefined)
- AC50 [13]: 2.08 µM (active)
- AC50 (HEK293): 5.92 µM (active)
- AC50 [14]: 2.41 µM (active)
- CC50 (Vero): 1.23 µM (active)
- AC50 [15]: 2.69 µM (active)
- AC50 [16]: 1 µM (active)
